# According to DBAASP:
# Key:
# Test in all cases: ≥ marks a high value that may be exact or a test limit, other limits are often not marked, values filed in µg/mL are converted to µM
# [1] = system: Enterobacter cloacae ATCC 11775
# [2] = system: Streptococcus pneumoniae
# [3] = system: Saccharomyces cerevisiae
# [4] = system: Salmonella typhimurium CIP 6062
# [5] = system: Escherichia coli 363 ATCC 11775
# [6] = system: Listeria monocytogenes
# [7] = system: Neisseria meningitidis
# [8] = system: Salmonella enterica subsp. enterica serovar Enteritidis
# [9] = system: Vibrio cholerae
# [10] = system: Pseudomonas aeruginosa
# [11] = system: Klebsiella pneumoniae
# [12] = system: Clostridium perfringens
# [13] = system: Staphylococcus aureus ATCC 25923
# [14] = system: Candida albicans
# [15] = system: Bacillus megaterium ATCC 9885
# [16] = system: Staphylococcus haemolyticus
# [17] = system: Candida albicans ATCC 90028
# [18] = system: Acinetobacter baumannii NM124
# [19] = system: Pseudomonas aeruginosa Pa4216
# [20] = system: Pseudomonas aeruginosa Pa1409
# [21] = system: Acinetobacter baumannii NM8
# [22] = system: Acinetobacter baumannii Ab5753
# [23] = system: Pseudomonas aeruginosa ATCC 27853
# [24] = system: Klebsiella pneumoniae ATCC 700603
# [25] = system: Acinetobacter baumannii Ab1408
# [26] = system: Staphylococcus aureus Sa1390
# [27] = system: Escherichia coli Ec513
# [28] = system: Escherichia coli ATCC 25726
# [29] = system: Acinetobacter baumannii NM35
# [30] = system: Acinetobacter baumannii Ab5755
# [31] = system: Escherichia coli MH1
# [32] = system: Arthrobacter globiformis VKM Ac-1112
# [33] = system: Pseudomonas aeruginosa PAO1
# [34] = system: Escherichia coli DH5alpha
# [35] = system: Bacillus subtilis VKM B-501
# [36] = system: Saccharomyces cerevisiae Y190
# [37] = system: Escherichia coli O111
# [38] = system: Escherichia coli B
# [39] = system: Salmonella typhimurium
MIC [1] [µM],MIC [2] [µM],MIC [3] [µM],MIC [4] [µM],MIC [5] [µM],MIC [6] [µM],MIC [7] [µM],MIC [8] [µM],MIC [10] [µM],MIC [11] [µM],MIC [12] [µM],MIC [13] [µM],MIC [14] [µM],MIC [15] [µM],MIC [31] [µM],MIC [32] [µM],MIC [33] [µM],MIC [34] [µM],SMILES,MIC [9] [µM],MIC [16] [µM],also measured
12.6,3.1,12.5,12.6,6.25,12.5,25,1.5,1.5,3.1,25,6.25,12.5,3.15,,,,,CC[C@H](C)[C@H](NC(=O)[C@H](CC(C)C)NC(=O)[C@H](CO)NC(=O)[C@@H](NC(=O)[C@@H](NC(=O)[C@H](CC(C)C)NC(=O)CN)C(C)C)[C@@H](C)O)C(=O)N[C@@H](CCCCN)C(=O)NCC(=O)N[C@@H](C)C(=O)NCC(=O)N[C@@H](CCCCN)C(=O)N[C@@H](CC(C)C)C(=O)N[C@@H](CC(C)C)C(=O)NCC(=O)NCC(=O)N[C@@H](CC(C)C)C(=O)N[C@@H](Cc1ccccc1)C(=O)NCC(=O)N[C@@H](CO)C(=O)N[C@H](C(=O)N[C@H](C(=O)NCC(N)=O)[C@@H](C)O)C(C)C [GLVTSLIKGAGKLLGGLFGSVTG],6.25,6.25,
,,,,,,,,,,,250,,,,,,,CC[C@H](C)[C@H](NC(=O)CNC(=O)[C@H](CCCCN)NC(=O)[C@@H](NC(=O)[C@H](CC(C)C)NC(=O)[C@H](CO)NC(=O)CNC(=O)[C@H](CC(C)C)NC(=O)CNC(=O)[C@H](C)NC(=O)[C@H](CCCCN)NC(=O)[C@H](Cc1ccccc1)NC(=O)[C@@H](NC(=O)[C@H](CCCCN)NC(=O)[C@H](CCCCN)NC(=O)[C@H](CC(C)C)NC(=O)CN)[C@@H](C)CC)C(C)C)C(=O)N[C@@H](C)C(=O)N[C@@H](C)C(=O)N[C@@H](Cc1cnc[nH]1)C(=O)N[C@H](C(=O)N[C@@H](C)C(=O)N[C@@H](CO)C(N)=O)C(C)C [GLKKIFKAGLGSLVKGIAAHVAS],,,MIC [17]: 20 µM; MIC [18]: 1.25 µM; MIC [19]: 28.2 µM; MIC [20]: ≥ 56.5 µM; MIC [21]: 2.5 µM; MIC [22]: 28.2 µM; MIC [23]: 6 µM; MIC [24]: 12.5 µM; MIC [25]: 28.2 µM; MIC [26]: ≥ 56.5 µM; MIC [27]: 14.1 µM; MIC [28]: 5 µM; MIC [29]: 5 µM; MIC [30]: 3.53 µM
,,,,,,,,,,,,,,4.4,0.3,> 35,4.4,CC[C@H](C)[C@H](NC(=O)[C@H](Cc1ccc(O)cc1)NC(=O)[C@H](CCC(N)=O)NC(=O)[C@H](CCCCN)NC(=O)[C@H](CC(C)C)NC(=O)[C@H](CCCCN)NC(=O)[C@H](CCC(=O)O)NC(=O)CNC(=O)[C@H](CCSC)NC(=O)[C@H](CO)NC(=O)[C@H](CCCCN)NC(=O)[C@@H](NC(=O)[C@H](CCCCN)NC(=O)[C@H](CC(=O)O)NC(=O)[C@H](CCCCN)NC(=O)[C@H](CC(C)C)NC(=O)[C@@H](N)CO)C(C)C)C(=O)N[C@@H](CCC(N)=O)C(=O)N[C@H](C(=O)N[C@@H](Cc1c[nH]c2ccccc12)C(=O)N[C@@H](CCCCN)C(=O)N[C@@H](C)C(=O)N[C@@H](CCCCN)C(=O)N[C@@H](Cc1ccccc1)C(N)=O)[C@@H](C)O [SLKDKVKSMGEKLKQYIQTWKAKF],,,MIC [35]: 1.1 µM; MIC [36]: ≥ 35 µM
,,,,,,,,,,,,,,,,,,CC[C@H](C)[C@H](NC(=O)[C@H](CO)NC(=O)[C@@H]1CCCN1C(=O)[C@H](C)NC(=O)CNC(=O)[C@H](CC(C)C)NC(=O)[C@H](CCCCN)NC(=O)[C@H](CCCN=C(N)N)NC(=O)[C@H](CCSC)NC(=O)[C@H](CCCN=C(N)N)NC(=O)[C@H](CCCN=C(N)N)NC(=O)[C@H](CCC(N)=O)NC(=O)[C@H](Cc1c[nH]c2ccccc12)NC(=O)[C@H](CCC(N)=O)NC(=O)[C@@H](N)Cc1ccc(O)cc1)C(=O)N[C@H](C(=O)O)[C@@H](C)O [YQWQRRMRKLGAPSIT],,,MIC [37]: ≥ 100 µM
,,,,,,,,,,,,,,28,0.7,> 45,23,CSCC[C@H](NC(=O)[C@H](CO)NC(=O)[C@H](C)NC(=O)[C@H](Cc1c[nH]c2ccccc12)NC(=O)[C@@H](N)CO)C(=O)N[C@@H](C)C(=O)N[C@@H](CCCCN)C(=O)N[C@@H](CCCCN)C(=O)N[C@@H](CC(C)C)C(=O)N[C@@H](CCCCN)C(=O)N[C@@H](CCC(=O)O)C(=O)N[C@@H](Cc1ccc(O)cc1)C(=O)N[C@@H](CCSC)C(=O)N[C@@H](CCC(=O)O)C(=O)N[C@@H](CCCCN)C(=O)N[C@@H](CC(C)C)C(=O)N[C@@H](CCCCN)C(=O)N[C@@H](CCC(N)=O)C(=O)N[C@@H](CCCN=C(N)N)C(=O)N[C@@H](C)C(N)=O [SWASMAKKLKEYMEKLKQRA],,,MIC [35]: 2.9 µM; MIC [36]: 23 µM
12.5,12.5,≥ 100,25.2,6.25,≥ 50,≥ 50,3.1,3.1,6.25,≥ 100,6.25,50,≥ 50.2,,,,,CC(C)C[C@H](NC(=O)[C@H](CC(C)C)NC(=O)[C@H](CCCCN)NC(=O)CNC(=O)[C@H](C)NC(=O)[C@@H](NC(=O)[C@H](CCCCN)NC(=O)[C@H](CC(C)C)NC(=O)[C@H](CC(C)C)NC(=O)[C@H](CC(=O)O)NC(=O)[C@@H](NC(=O)[C@@H](NC(=O)[C@@H](NC(=O)CN)C(C)C)C(C)C)[C@@H](C)O)[C@@H](C)O)C(=O)NCC(=O)N[C@@H](CC(N)=O)C(=O)N[C@@H](CC(C)C)C(=O)N[C@@H](Cc1ccccc1)C(=O)NCC(=O)N[C@@H](CO)C(=O)N[C@@H](CC(C)C)C(=O)N[C@@H](CO)C(=O)NCC(N)=O [GVVTDLLKTAGKLLGNLFGSLSG],25,≥ 50,MIC [38]: 12.5 µM; MIC [39]: 6.25 µM
